Our source for the melting point values is a melting point compilation (Tetko et al.).

The structures appear in SMILES notation.

For the data set the following is noted: a range is the spread between reports.

For orientation: melting point means the temperature of the solid-liquid transition.

On to `c1ccc2c(c1)Cc1ccccc1C2`, for which the melting point lay in the range of 108 to 111 °C.
`C=Cc1ccccc1Cl` returned a melting point of -63.1 to -63 °C.
Molecule `O=C(CCC(=O)OCc1ccccc1)OCc1ccccc1` displayed a melting point of 45 to 49.5 °C.
`Cc1cc(C)c(C)c(Br)c1C` returned a melting point of 56 to 60 °C.
With `O=C(O)Cc1c(Cl)ccc(Cl)c1Cl` the figure was 156 to 161 °C.
With `CCCCOc1ccc(C(=O)O)cc1`, the melting point lay in the range of 147 to 148 °C.
Turning to `O=Cc1ccc(O)c(O)c1`, the melting point was in the range of 153 to 155 °C.
With `Cc1cc(NS(=O)(=O)c2ccc(N)cc2)no1` the figure was 167 to 172 °C.
With `O=c1cc(-c2ccccc2)oc2ccccc12` the figure was 97 to 100 °C; with `CC1(O)CCC(C(C)(C)O)CC1` (centres undefined), 158 °C; with `OCC(CO)(CO)COCC(CO)(CO)CO`, 217 to 221 °C.
On to `O=[N+]([O-])c1cccc2c([N+](=O)[O-])cccc12`, for which the melting point is 216 to 219 °C.
The molecule `CC1=CC(=O)c2ccccc2C1=O` showed a melting point of 102 to 107 °C.
Molecule `O=Cc1ccc([N+](=O)[O-])o1` gave a melting point of 35.5 to 36 °C.
With `COc1cc(C(C)=O)ccc1O`, the melting point lay within 114 to 115 °C.
With `C=CC(=O)OCC`, the melting point was -71.2 to -71 °C.
In turn, `Oc1ccc(Cc2ccc(O)cc2)cc1` displayed a melting point of 161 to 162 °C.
For `COc1cc(Cl)c(Cl)c(Cl)c1Cl`, the melting point fell in the range of 84 to 88 °C.
The same measure for `COC(C)(C)C`: -109 °C; for `C1CCc2nnnn2CC1`: 57.5 to 60 °C.
With `O=Cc1ccccc1C(=O)O` the figure was 97 to 99 °C; with `CC(C)c1ccccc1Cl`, -74.4 to -74 °C; with `CCCCN`, -50 to -49 °C.
As for `CCOC=O`, the melting point is -81 to -79.6 °C.
As to `C=C(C)C(C)C`, the melting point is -157 °C.
`c1ccc2cc3c(cc2c1)-c1cccc2cccc-3c12` came in with a melting point of 216 to 217 °C.
Molecule `CC1(C)CC(C)(c2ccccc2)c2ccccc21` (centres undefined) registered a melting point of 50 to 52.5 °C.
In the case of `CCCCCCCCCCCCCCCCCCCCC`, the melting point lay within 39 to 41 °C.
With `O=C1OC(=O)c2cccc3cccc1c23` the figure was 270 to 271 °C; with `CCCCCCCCCC(C)=O`, 12 to 15 °C.
The same measure for `Cc1ccc(O)cc1Cl`: 52 to 55.5 °C.
As for `Nc1ccc(Br)cc1[N+](=O)[O-]`, the melting point worked out at 112 °C.
In turn, `COC(=O)C1C2CC3c4[nH]c5cc(OC)ccc5c4CCN3CC2CC(OC(=O)c2cc(OC)c(OC)c(OC)c2)C1OC` (centres undefined) returned a melting point of 264 to 265 °C.
The molecule `Nc1ccc(Cl)cc1Cl` showed a melting point of 61 to 63.5 °C.
The same measure for `CN1CCC(=C2c3ccccc3C=Cc3ccccc32)CC1`: 112 to 113 °C.
`N#CCCCCCCC#N`: the melting point was -3.5 to -3 °C.
`CC(=O)Nc1ccccc1O`: the melting point was 205 to 208 °C.
`OCCCCO` displayed a melting point of 16 to 20.4 °C.
Regarding `Cc1ccc(C(=O)c2ccc(C)cc2)cc1`, the melting point lay in the range of 94 to 96.5 °C.
For the molecule `Nc1ccc2cc3ccccc3cc2c1`, the melting point was 235 to 239 °C.
On to `C[Si](C)(C)C#C[Si](C)(C)C`, for which the melting point is 22 to 26 °C.
The molecule `N#C/C=C/C#N` had a melting point of 96.8 to 97 °C.
For the molecule `COP(=O)(NC(C)=O)SC` (centres undefined), the melting point lay in the range of 88 to 89 °C.
In turn, `O=C(O)CCCCCBr` returned a melting point of 34 to 35 °C.
The same measure for `C=C(C)CC(C)(C)C`: -94 to -93 °C.
The same measure for `CC(=O)Nc1ccc(N)cc1`: 163 to 166 °C; for `CCOC(=O)c1ccc(O)cc1`: 116 to 117 °C; for `O=C(O)Cc1ccccc1O`: 146 to 149 °C.
In the case of `NNc1cc(Cl)ccc1Cl`, the melting point was 102 to 104 °C.
As for `CCCCCCCCCCCCCCCC(=O)OC(C)C`, the melting point lay in the range of 12 to 13.5 °C.
In turn, `N#CCCC(Br)(C#N)CBr` (centres undefined) came in with a melting point of 50 to 52 °C.
`CC(C)(C)c1cc(O)c(C(C)(C)C)cc1O` returned a melting point of 216 to 218 °C.
With `CCCCCc1ccc(O)cc1`, the melting point lay within 23 to 24 °C.
With `c1ccc2c(c1)Sc1ccccc1S2` the figure was 159 °C; with `CC(C)(O)C(C)(C)O`, 43 to 44 °C.
As to `O=C1C=CC(=O)C=C1`, the melting point was in the range of 114 to 116 °C.
`O=CC=Cc1ccco1` registered a melting point of 51 to 54 °C.
With `COc1ccc(OC)cc1`, the melting point was in the range of 56 to 60 °C.
`CCOC(=O)C(C(=O)OCC)c1ccccc1` returned a melting point of 16 to 16.5 °C.
Take `CC(=O)N(O)CCCCCNC(=O)CCC(=O)N(O)CCCCCNC(=O)CCC(=O)N(O)CCCCCN`: the melting point fell in the range of 139 to 140 °C.
`CCCCCCCCCCC(C)=O` showed a melting point of 19 to 21 °C.
Molecule `CCC(C)=NO` registered a melting point of -30 to -29.5 °C.
`CCOc1ccccc1C(=O)O` came in with a melting point of 20 to 20.7 °C.
In turn, `CCOC(=O)CNc1ccccc1` registered a melting point of 57 to 58 °C.
With `COc1ccc(C=O)c(C(=O)O)c1OC` the figure was 147 to 150 °C; with `CCOC(=O)c1ccc(N)cc1`, 88 to 92 °C.
In the case of `O=C(OC(=O)C(F)(F)F)C(F)(F)F`, the melting point was -65 to -63 °C.
With `CCCCC(C)CCCC` the figure was -88 to -87.7 °C; with `c1ccc2c(c1)-c1cccc3c1c-2cc1ccccc13`, 164 to 168 °C; with `O=C(O)CCC(=O)O`, 185 to 188 °C.
With `CO[C@@H]1O[C@H](CO)[C@H](O)[C@H](O)[C@H]1O` the figure was 172 to 177 °C.
Molecule `O=C(Cl)CCC(=O)Cl` had a melting point of 17 to 20 °C.
With `N#CNC(=N)N` the figure was 208 to 211 °C; with `O=C(CCl)c1ccccc1`, 54 to 56.5 °C.
`O=Cc1ccc[nH]1` came in with a melting point of 43 to 46.5 °C.
Molecule `Nc1cccc(CO)c1` came in with a melting point of 93 to 95 °C.
In the case of `O=C(O)c1cc2ccccc2cc1O`, the melting point lay within 220 to 222 °C.
Take `CCCCCCC`: the melting point is -91 to -90.6 °C.
The same measure for `Nc1ccc(F)c(Cl)c1`: 45.5 to 46 °C; for `COc1ccc(N)cc1`: 57 to 59 °C.
`CC(=O)Nc1ccccc1` displayed a melting point of 114 to 115 °C.
The same measure for `NNc1c(F)c(F)cc(F)c1F`: 89 to 92 °C; for `CC1CC1`: -177 °C.
Turning to `CCNc1nc(Cl)nc(NCC)n1`, the melting point lay in the range of 226 to 228 °C.
Turning to `COc1ccc(OC)c(C(C)=O)c1`, the melting point was in the range of 19 to 20 °C.
`CNC(=O)NC(C)=O` showed a melting point of 178 to 180 °C.
As for `Cc1cc(C)c(S(=O)(=O)Cl)c(C)c1`, the melting point was in the range of 55 to 56 °C.
Regarding `CC1CO1` (centres undefined), the melting point is -112 °C.
Turning to `NNc1ccccc1`, the melting point lay in the range of 19 to 19.6 °C.
On to `CC(C)(C)O`, for which the melting point lay in the range of 25 to 26 °C.
For the molecule `OCc1cccc(Oc2ccccc2)c1`, the melting point was in the range of 6 to 10 °C.
In turn, `O=C(O)Cc1cccc(Cl)c1` displayed a melting point of 78 to 79 °C.
For `C=CCI`, the melting point is -99.3 to -99 °C.
With `O=C(c1ccccc1)c1c(F)c(F)c(F)c(F)c1F` the figure was 37 to 38 °C.
`CCCCCCCCC(C)C`: the melting point was -49 to -48.9 °C.
Consider `CC1CCC(C)C1C` (centres undefined), for which the melting point was -116 to -112 °C.
Regarding `CCCCC=O`, the melting point is -92 to -91 °C.
With `CC(C)OC(=O)Nc1ccccc1` the figure was 87.3 to 88 °C; with `O=C(O)CCC(=O)c1ccc(-c2ccccc2)cc1`, 186 °C.
The same measure for `Clc1ccc(SSc2ccc(Cl)cc2)cc1`: 68 to 73 °C; for `CCN1C(=O)C=CC1=O`: 44 to 45.5 °C; for `Ic1ccc(I)cc1`: 130 to 132 °C.
With `CCOC(=O)NCCOc1ccc(Oc2ccccc2)cc1` the figure was 53 to 53.5 °C; with `NS(=O)(=O)Cc1noc2ccccc12`, 162 °C.
For `Cc1ccc(C)n1-c1ccccc1`, the melting point was 49.5 to 50 °C.
On to `CN(C)c1ccc(Br)cc1`, for which the melting point was 54 to 55 °C.
With `CCOc1ccc2ccccc2c1C=O` the figure was 112 to 115 °C.
The molecule `CCCC(O)CCC` showed a melting point of -42 to -41.2 °C.
Molecule `N#Cc1ccccn1` yielded a melting point of 27 to 29 °C.
The molecule `N#Cc1cccc(C(=O)O)c1` gave a melting point of 219 to 223 °C.
For the molecule `COC(=O)c1cccc(I)c1`, the melting point fell in the range of 54 to 54.5 °C.
In turn, `Cc1cc(C)c(CC(=O)O)c(C)c1` yielded a melting point of 168 to 169 °C.
`CS(=O)(=O)OCCCCOS(C)(=O)=O` gave a melting point of 116 °C.
In turn, `Nc1ccc2ccccc2c1` yielded a melting point of 112 to 113 °C.
Molecule `CC(=O)Nc1c(C)cccc1C` had a melting point of 181 to 183 °C.
Consider `C[Si](C)(C)[Si](C)(C)C`, for which the melting point is 12 to 13.5 °C.
Turning to `CCOc1ccccc1O`, the melting point lay within 26 to 29 °C.
`Cc1ccccn1` registered a melting point of -70 to -66.7 °C.
Molecule `COc1cccc(O)c1O` displayed a melting point of 42 to 42.8 °C.
As for `O=C(NNc1ccccc1)NNc1ccccc1`, the melting point was 170 to 173 °C.
For `O=[N+]([O-])c1ccccc1CCl`, the melting point fell in the range of 47 to 51 °C.
The molecule `O=C(Cc1ccccc1)c1ccccc1` yielded a melting point of 55 to 60 °C.
With `C1=CCCCC1`, the melting point is -104 °C.
On to `CCCCSC`, for which the melting point is -98 to -97.8 °C.
With `O=[N+]([O-])c1cc(F)ccc1F` the figure was -12 to -11.7 °C; with `CCC(C)=C(C)C`, -118 °C.
`O=C1c2ccccc2C(=O)c2ccccc21` showed a melting point of 284 to 286 °C.
As for `CC(=O)Nc1cccc(F)c1`, the melting point lay within 83 to 88 °C.
As to `O=C(O)CCCC(=O)O`, the melting point was 96.5 to 97.8 °C.
`CCCCC(=O)O` came in with a melting point of -34 to -33.7 °C.
For `O=C(O)CBr`, the melting point was 47 to 50 °C.
In turn, `O=C(O)c1ccc([N+](=O)[O-])cc1Cl` showed a melting point of 139 to 142 °C.
Molecule `CCc1ccccn1` gave a melting point of -63.1 to -63 °C.
In the case of `O=[N+]([O-])c1cccc(I)c1`, the melting point is 37 to 38.5 °C.
The molecule `O=C1CCCCC1=O` displayed a melting point of 37 to 40 °C.
As to `c1ccc2ocnc2c1`, the melting point lay within 30 to 31 °C.
In turn, `Clc1ccccc1Cl` displayed a melting point of -18 to -16.7 °C.
In turn, `C#CC(C)(O)c1ccccc1` (centres undefined) displayed a melting point of 48 to 52.3 °C.
Molecule `O=Cc1cccc(I)c1` returned a melting point of 56 to 58 °C.
